From patent US7763234B2, “Pharmaceutical compounds” (GE Healthcare AS, priority 2005, dated 2010)
Numbered stars: 1 amine (or outer) side, 2 acyl side, 3 side chain; on linkers, the order of the positions; unused ones are H or OH. Square brackets hold non-standard residues; d marks the D form. Peptide text beside a SMILES is read from it. ξ: configuration not given here. X1 = C/C(=N/O)C(C)(C)NCCC(CCNC(C)(C)/C(C)=N\O)CCN(CC(=O)[*:2])[*:1]; Ile(3ξ) = CCC(C)[C@H](N)C(=O)O

Molecular target: T1, ACE (Sigma A-6778) (Oryctolagus cuniculus, UniProt P12822)
T1 construct: purchased Sigma A-6778
T1 sequence (P12822 34-1310): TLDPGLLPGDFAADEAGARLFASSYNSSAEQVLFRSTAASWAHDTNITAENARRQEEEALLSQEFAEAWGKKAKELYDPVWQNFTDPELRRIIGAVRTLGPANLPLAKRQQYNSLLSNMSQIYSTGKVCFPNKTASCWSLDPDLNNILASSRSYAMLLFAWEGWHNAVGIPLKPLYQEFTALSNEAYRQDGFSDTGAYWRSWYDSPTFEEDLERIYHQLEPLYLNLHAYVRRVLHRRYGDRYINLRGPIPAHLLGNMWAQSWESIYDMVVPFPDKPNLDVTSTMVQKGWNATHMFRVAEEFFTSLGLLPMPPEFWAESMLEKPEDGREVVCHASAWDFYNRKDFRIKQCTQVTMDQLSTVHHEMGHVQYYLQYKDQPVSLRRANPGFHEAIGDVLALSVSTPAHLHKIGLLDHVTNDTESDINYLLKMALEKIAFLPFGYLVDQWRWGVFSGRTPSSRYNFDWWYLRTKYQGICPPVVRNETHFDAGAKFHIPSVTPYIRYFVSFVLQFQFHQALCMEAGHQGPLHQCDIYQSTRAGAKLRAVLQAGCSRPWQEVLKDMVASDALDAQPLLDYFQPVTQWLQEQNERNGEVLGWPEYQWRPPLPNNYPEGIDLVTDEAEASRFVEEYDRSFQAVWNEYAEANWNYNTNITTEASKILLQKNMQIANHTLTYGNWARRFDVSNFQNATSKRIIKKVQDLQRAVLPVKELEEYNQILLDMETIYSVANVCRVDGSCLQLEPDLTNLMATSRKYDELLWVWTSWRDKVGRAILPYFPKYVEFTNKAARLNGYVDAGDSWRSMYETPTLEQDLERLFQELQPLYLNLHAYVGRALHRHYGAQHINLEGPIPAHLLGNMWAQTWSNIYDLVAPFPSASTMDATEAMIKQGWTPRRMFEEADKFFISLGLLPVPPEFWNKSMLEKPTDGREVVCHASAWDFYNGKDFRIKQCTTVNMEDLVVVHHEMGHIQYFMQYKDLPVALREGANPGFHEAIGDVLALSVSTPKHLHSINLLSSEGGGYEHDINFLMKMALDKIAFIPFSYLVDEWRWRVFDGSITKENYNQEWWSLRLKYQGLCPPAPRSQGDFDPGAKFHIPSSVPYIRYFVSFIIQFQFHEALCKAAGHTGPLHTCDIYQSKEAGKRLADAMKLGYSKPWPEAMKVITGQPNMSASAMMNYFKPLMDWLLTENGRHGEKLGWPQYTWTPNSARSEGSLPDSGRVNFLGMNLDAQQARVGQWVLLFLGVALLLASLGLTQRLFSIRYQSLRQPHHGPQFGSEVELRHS
Experiment: ACE cleavage of Ang I peptide analogues (LC-MS)
Type: biochemical
Settings: after 120 min; 0.1 mg peptide in 100 μL ACE stock solution (0.34 mg/mL, 200 mM HEPES pH 7.8), room temperature
Method: ACE stock solution was prepared: 0.34 mg ACE (Sigma A-6778) was dissolved in 1 mL 200 mM HEPES adjusted to pH 7.8 using KOH.
0.1 mg of the Ang I peptide analogue was dissolved in 100 μL of the ACE stock solution and the solution incubated at room temperature. Samples (10 μL) were withdrawn from the solution, diluted with H2O/0.1% TFA (400 μL) and analysed by LC-MS.

Compound | percent cleavage/time [%/120 min]
CCC(C)[C@H](NC(=O)[C@H](Cc1ccc(O)cc1)NC(=O)[C@@H](NC(=O)[C@H](CCCNC(=N)N)NC(=O)CNCCC(CCNC(C)(C)/C(C)=N\O)CCNC(C)(C)/C(C)=N\O)C(C)C)C(=O)N[C@@H](Cc1cnc[nH]1)C(=O)N1CCC[C@H]1C(=O)N[C@@H](Cc1ccccc1)C(=O)N[C@@H](Cc1cnc[nH]1)C(=O)N[C@@H](CC(C)C)C(=O)O (stereo partly drawn) [cPn216-Gly-Arg-Val-Tyr-Ile-His-Pro-Phe-His-Leu-OH] (H-[X1]RVY[Ile(3ξ)]HPFHL-OH) | 40
Ang I: the decapeptide Ang I, formed from angiotensinogen by renin and converted by ACE to the active Ang II | 40
